The record followed here is patent publication US20240228468A1, “N-(6-((OCTAHYDROCYCLOPENTA[C]PYRROL-5-YI)AMINO)PYRIDAZIN-3-YL)PHENYL)CARBOXAMIDE AND (6- ((OCTAHYDROCYCLOPENTA[C]PYRROL-5-YL)AMINO)PYRIDAZIN-3-YL)BENZAMIDE DERIVATIVES AS MACHR M4 ANTAGONISTS FOR THE TREATMENT OF NEURODEGENERATIVE DISORDERS” (Vanderbilt University, priority 2021, published 2024).

Each structure is given as a SMILES string. pIC50: −log10 of the molar value. Like-named read-outs stand apart in the source and are kept apart here.

The target in this test is T1, Human M4 (Homo sapiens, UniProt P08173).
T1 construct: expressed in transfected cells; host or cells: CHO-K1 (ATCC), co-transfected with chimeric G protein Gqi5
T1 sequence (P08173 1-479): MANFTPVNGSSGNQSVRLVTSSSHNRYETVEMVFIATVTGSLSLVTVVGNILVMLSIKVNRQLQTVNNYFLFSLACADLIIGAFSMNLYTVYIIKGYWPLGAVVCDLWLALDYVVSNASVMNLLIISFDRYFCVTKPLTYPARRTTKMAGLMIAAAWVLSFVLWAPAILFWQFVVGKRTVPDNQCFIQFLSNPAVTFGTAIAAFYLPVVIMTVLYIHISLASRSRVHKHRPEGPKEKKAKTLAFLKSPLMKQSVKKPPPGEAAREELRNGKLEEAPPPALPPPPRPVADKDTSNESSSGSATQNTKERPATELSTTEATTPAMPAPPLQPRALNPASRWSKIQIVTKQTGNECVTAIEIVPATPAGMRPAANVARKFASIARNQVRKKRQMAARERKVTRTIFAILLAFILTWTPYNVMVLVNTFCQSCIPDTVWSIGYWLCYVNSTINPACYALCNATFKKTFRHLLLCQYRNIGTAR
The test can be described thus: mAChR M4 cell-based functional assay (calcium flux, antagonism of EC80 acetylcholine response). The note with it: for pIC50: concentration-dependent decrease of the response elicited by an EC80 concentration of acetylcholine. An outline of the steps: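 CHO-K1 cells stably expressing human M4 with chimeric Gqi5, Fluo-4 loaded; calcium flux read on FDSS. Compound (10-point, 1:3 series) added first, then EC20 acetylcholine at 143 s and EC80 at 268 s. IC50 from concentration-dependent decrease of EC80 response, four-parameter logistic fit.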

[1] abbreviates: M4/Gqi5/CHO-K1 cells, % ACh maximum at 30 μM, read-out: Human M4 Emin (% ACh maximum at 30 μM).
The mark [2] stands for this setting: CHO-K1, read-out: Human M4 Emin (% ACh maximum at 30 μM).

Turning to `[2H]C([2H])([C@H]1CCCOC1)N1C[C@H]2C[C@H](Nc3ccc(-c4cccc(C(=O)NC)c4)nn3)C[C@H]2C1` [Compound A78, N-methyl-3-(6-(((3aR,5s,6aS)-2-(((R)-tetrahydro-2H-pyran-3-yl)methyl-d2)octahydrocyclopenta[c]pyrrol-5-yl)amino)pyridazin-3-yl)benzamide], the remaining activity at 30 µM under setting [1] was determined as 8%. For the same compound, the pIC50 (usually the IC50 on a negative log10 scale, so that one unit is a factor of ten) (M4/Gqi5/CHO-K1 cells) was 6.24.
In the same order, the values of `CCN(CC)C(=O)c1ccc(-c2ccc(N[C@H]3C[C@@H]4CN(CC5CCOCC5)C[C@@H]4C3)nn2)c(F)c1` [Compound A38, N,N-diethyl-3-fluoro-4-(6-(((3aR,5s,6aS)-2-((tetrahydro-2H-pyran-4-yl)methyl)octahydrocyclopenta[c]pyrrol-5-yl)amino)pyridazin-3-yl)benzamide] are 4% and 7.32.
With `[2H]C([2H])([2H])C(=O)Nc1ccc(-c2ccc(N[C@H]3C[C@@H]4CN(CC5CCOCC5)C[C@@H]4C3)nn2)cc1` (single isomer, unassigned) [Compound B5], the “Human M4 Emin (% ACh maximum at 30 μM)” value (M4/Gqi5/CHO-K1 cells, % ACh maximum at 30 μM) is 3%. For the same compound, under “M4/Gqi5/CHO-K1 cells”, the pIC50 was 8.62.
Take `CCC(=O)Nc1cccc(-c2ccc(N[C@H]3C[C@@H]4CN(CC5CCOCC5)C[C@@H]4C3)nn2)c1` [Compound A56, N-(3-(6-(((3aR,5s,6aS)-2-((tetrahydro-2H-pyran-4-yl)methyl)octahydrocyclopenta[c]pyrrol-5-yl)amino)pyridazin-3-yl)phenyl)propionamide]: the remaining activity at 30 µM under setting [1] is 4%. In addition, the pIC50 (M4/Gqi5/CHO-K1 cells) is 7.37.
In the case of `CS(=O)(=O)CC(=O)Nc1cccc(-c2ccc(N[C@H]3C[C@@H]4CN(CC5CCOCC5)C[C@@H]4C3)nn2)c1` [Compound A17, 2-(Methylsulfonyl)-N-(3-(6-(((3aR,5s,6aS)-2-((tetrahydro-2H-pyran-4-yl)methyl)octahydrocyclopenta[c]pyrrol-5-yl)amino)pyridazin-3-yl)phenyl)acetamide], the remaining activity at 30 µM under setting [2] was 3%. Besides, the pIC50 (M4/Gqi5/CHO-K1 cells) was 8.55.
For `O=C(Nc1ccc(-c2ccc(N[C@H]3C[C@@H]4CN(CC5CCOCC5)C[C@@H]4C3)nn2)cc1)C1CC1` [Compound A26, N-(4-(6-(((3aR,5s,6aS)-2-((tetrahydro-2H-pyran-4-yl)methyl)octahydrocyclopenta[c]pyrrol-5-yl)amino)pyridazin-3-yl)phenyl)cyclopropanecarboxamide], the remaining activity at 30 µM under setting [1] came out at 3%. For the setting “M4/Gqi5/CHO-K1 cells”, the pIC50 is 8.17.
On to `O=C(NC12CC(C1)C2)c1cc(F)c(F)c(-c2ccc(N[C@H]3C[C@@H]4CN(CC5CCOCC5)C[C@@H]4C3)nn2)c1` [Compound A18, N-(Bicyclo[1.1.1]pentan-1-yl)-3,4-difluoro-5-(6-(((3aR,5s,6aS)-2-((tetrahydro-2H-pyran-4-yl)methyl)octahydrocyclopenta[c]pyrrol-5-yl)amino)pyridazin-3-yl)benzamide], for which, under setting [2], the remaining activity at 30 µM was found to be 3%. The pIC50 (M4/Gqi5/CHO-K1 cells) was 7.57.
In the case of `CCNC(=O)c1cccc(-c2ccc(N[C@H]3C[C@@H]4CN(CC5CCOCC5)C[C@@H]4C3)nn2)c1` [Compound A43, N-ethyl-3-(6-(((3aR,5s,6aS)-2-((tetrahydro-2H-pyran-4-yl)methyl)octahydrocyclopenta[c]pyrrol-5-yl)amino)pyridazin-3-yl)benzamide], the remaining activity at 30 µM under setting [1] is 4%. The pIC50 (M4/Gqi5/CHO-K1 cells) is 7.89.
Regarding `CC(=O)Nc1ccc(-c2ccc(N[C@H]3C[C@@H]4CN(Cc5ccccn5)C[C@@H]4C3)nn2)cc1` [Compound A8, N-(4-(6-(((3aR,5s,6aS)-2-(Pyridin-2-ylmethyl)octahydrocyclopenta[c]pyrrol-5-yl)amino)pyridazin-3-yl)phenyl)acetamide], the remaining activity at 30 µM under setting [2] was 5%. Besides, the pIC50 (M4/Gqi5/CHO-K1 cells) was 7.37.
Turning to `[2H]C([2H])([C@H]1CCCCO1)N1C[C@H]2C[C@H](Nc3ccc(-c4cccc(C(=O)NC)c4)nn3)C[C@H]2C1` [Compound A81, N-methyl-3-(6-(((3aR,5s,6aS)-2-(((R)-tetrahydro-2H-pyran-2-yl)methyl-d2)octahydrocyclopenta[c]pyrrol-5-yl)amino)pyridazin-3-yl)benzamide], under setting [1], the remaining activity at 30 µM is 4%. In addition, for the setting “M4/Gqi5/CHO-K1 cells”, the pIC50 is 9.39.
The like results for `[2H]C([2H])(C1CCOCC1)N1C[C@H]2C[C@H](Nc3ccc(-c4ccc(NC(=O)CC)cc4)nn3)C[C@H]2C1` [Compound A40, N-(4-(6-(((3aR,5s,6aS)-2-((tetrahydro-2H-pyran-4-yl)methyl-d2)octahydrocyclopenta[c]pyrrol-5-yl)amino)pyridazin-3-yl)phenyl)propionamide] were, in that order, 3% and 8.60.
In the same order, the values of `[2H]C([2H])([C@H]1CCCOC1)N1C[C@H]2C[C@H](Nc3ccc(-c4cc(F)cc(C(=O)NC)c4)nn3)C[C@H]2C1` [Compound A84, 3-fluoro-N-methyl-5-(6-(((3aR,5s,6aS)-2-(((R)-tetrahydro-2H-pyran-3-yl)methyl-d2)octahydrocyclopenta[c]pyrrol-5-yl)amino)pyridazin-3-yl)benzamide] are 6% and 6.47.
In the same order, the values of `O=C(Nc1cc(F)c(F)c(-c2ccc(N[C@H]3C[C@@H]4CN(CC5CCOCC5)C[C@@H]4C3)nn2)c1)C1CC(F)(F)C1` [Compound A14, N-(3,4-difluoro-5-(6-(((3aR,5s,6aS)-2-((tetrahydro-2H-pyran-4-yl)methyl)octahydrocyclopenta[c]pyrrol-5-yl)amino)pyridazin-3-yl)phenyl)-3,3-difluorocyclobutane-1-carboxamide] are 4% and 6.80.
